Columns and labels:
[1] = system: library of 512 hairpin deoxyoligonucleotides containing all possible five bp sequences; test: Fluorescent intercalator displacement (ethidium bromide) assay, 96-well, 512-member hairpin library; type: binding; details: for 3 or 2 bp AT sites, statistical site frequency in the top 50 sequences: FIG. 24; for five bp AT sites found in the top 50 sequences: share of the 16 five bp AT sites; for four bp AT sites found in the top 50 sequences: share of the 32 four bp AT sites; for three bp AT sites found in the top 50 sequences: share of the 80 three bp AT sites
Experimental: Ethidium Bromide Assay. […] Prior to use, each deoxyoligonucleotide was diluted to […] in water and stored at 0° C. for no longer than two days. Each well of a Costar black 96-well plate was loaded with Tris buffer containing ethidium bromide (88 μL of a 0.68×10^−5 solution in buffer (0.1 M Tris, 0.1 M NaCl, pH 8), 0.60×10^−5 M ethidium bromide final concentration). To each well was added one hairpin deoxyoligonucleotide (10 μL, 1.2×10^−5 M in DNA bp final concentration) followed by agent (2 μL of a 0.1 mM solution in water, 2.0×10^−6 M final concentration). […] Fluorescence readings are reported as % fluorescence relative to the control wells. Fluorescence plate readers show a variability of ±10%, but surface effects (i.e bubbles, dust) may contribute to larger variations requiring a second set of measurements.
All other experiments described herein (i.e. compound concentration, overall assay concentration, ethidium bromide:DNA ratio, time variability, etc.) utilized this general procedure in a 96-well plate format.

[2] = system: hairpin deoxyoligonucleotides (AATTT, AAAAA, AATAA, ATTAA); test: Ethidium bromide displacement quantitative titration, Scatchard analysis; type: binding; details: for binding constant for the hairpin containing AAAAA: ethidium bromide displacement titration
Experimental: Determination of Binding Constants. Ethidium Bromide/Thiazole Orange Displacement. A 3 mL quartz cuvette was loaded with Tris buffer (0.1 M Tris, 0.1 M, NaCl, pH 8) and ethidium bromide orthiazole orange (0.44×10^−5 M final concentration). […] The hairpin deoxyoligonucleotide of interest was added (1.1 μM, 8.8 μM in bp final concentration), the fluorescence was measured again and normalized to 100% relative fluorescence. A solution of compound (2 μL, 0.1 mM in DMSO) was added and the fluorescence was measured following 5 min of incubation at 23° C. The addition of 2 μL aliquots was continued until the system reached saturation and the fluorescence remained constant with subsequent compound additions.
(§1) Scatchard Analysis of the Titration Curve. The AF was plotted versus molar equivalents of agent and the ΔFsat was determined mathematically by solving the simultaneous equations representing the pre and post saturation regions of the titration curve. Utilizing equations (1)-(3) (FIG. 11), a Scatchard plot was generated where ΔF/[Free Agent] was plotted versus ΔF. The slope of the region immediately preceding complete saturation of the system provided −K.

GC-rich regions = details: fold weaker; cited from earlier work
[3] = system: 136-membered hairpin library containing all possible four bp sites; test: Thiazole orange displacement 96-well assay, 136-membered hairpin library; type: binding; details: 136 hairpins
Experimental: A preliminary examination of thiazole orange was conducted to assess the optimal assay concentration range, and to establish its affinity and stoichiometry of binding with representative hairpins (FIG. 10). Thiazole was utilized in both the 96-well format assay and in quantitative titrations for determining binding constants (FIGS. 27 and 28). […] A representative example of the use of thiazole orange in the 96-well format assay is illustrated in FIG. 28 with the assay of netropsin against a 136-membered hairpin library containing all possible four bp sites. […] The mean rank of the ten available 4 bp AT sites was 7.3, whereas the mean positions for the 3 and 2 bp sites were 41.6 and 67.7, respectively. Moreover, the rank order binding across the full ensemble of 4 bp AT sites is consistent with that established in footprinting studies (Portugal, J.; Waring, M. J. Eur. J. Biochem. 1987, 167, 281; Portugal, J.; Waring, M. J. FEBS Lett. 1987, 225, 195; Abu-Daya, A.; et al. Nucleic Acids Res. 1995, 23, 3385; Abu-Daya, A.; Fox, K. R. Nucleic Acids Res. 1997, 25, 4962; Harshman, K. D.; Dervan, P. B. Nucleic Acids Res. 1985, 13, 4825; Van Dyke, M. W.; et al. Proc. Natl. Acad. Sci. USA 1982, 79, 5470; Ward, B.; et al. Biochemistry 1988, 27, 1198; Fish, E. L.; et al. Biochemistry 1988, 27, 6026; Kittler, L.; et al. J. Mol. Recognit. 1999, 12, 121).

[4] = system: hairpin deoxyoligonucleotide; test: Direct fluorescence titration of DAPI, Hoechst 33258, ethidium bromide or thiazole orange; type: binding; details: FIG. 10, second table
Experimental: Direct Fluorescence Titration of DAPI, Hoechst 33258, Ethidium Bromide or Thiazole Orange. A 3 mL quartz cuvette was loaded with Tris buffer (0.1 M Tris, 0.1 M, NaCl, pH 8) and hairpin deoxyoligonucleotide (1.1 μM, 8.8 μM in bp final concentration). A solution of DAPI (excitation 372 nm; emission 454 nm; 2 μL, 0.1 mM in DMSO), Hoechst 33258 (excitation 358 nm; emission 454 nm; 2 μL, 0.1 mM in DMSO), ethidium bromide (excitation 545 nm; emission 595 nm; 2 μL, 0.5 mM in H2O) or thiazole orange (excitation 509 nm; emission 527 nm; 2 μL, 0.5 mM in DMSO) was added and the fluorescence was measured following 5 min of incubation at 23° C. The addition of 2 μL aliquots was continued until the system reached saturation and the fluorescence remained constant with subsequent additions.
as §1

polynucleotides = test: Binding constants of ethidium bromide and thiazole orange to polynucleotides (FIG. 10, first table)
Excerpt: FIG. 10 is a table showing the binding constants of ethidium bromide and thiazole orange. […] The variation in the DNA used in the first table is much greater than that used in the second table which explains the greater variation in the ethidium bromide constants.

Compound	3 or 2 bp AT sites, statistical site frequency in the top 50 sequences ([1]; 512 hairpins) [%]	five bp AT sites found in the top 50 sequences ([1]; 512 hairpins) [%]	four bp AT sites found in the top 50 sequences ([1]; 512 hairpins) [%]	three bp AT sites found in the top 50 sequences ([1]; 512 hairpins) [%]	binding constant for the hairpin containing AAAAA ([2]; hairpin containing 5′-AAAAA) [M⁻¹]	sites containing a GC bp central to a five bp AT-rich site in the top 50 sequences ([1]; 512 hairpins)	also measured
Cn1cc(NC(=O)c2cc(NC(=O)c3cc(NC=O)cn3C)cn2C)cc1C(=O)NCCC(=N)N [distamycin A]	27	88	47	13	1.7e+07		hairpin sites with a GC bp central to a five bp AT-rich site found in the top 50 sequences ([1]; share of the 16 such hairpin sites): 44%; two bp AT sites found in the top 50 sequences ([1]; share of the 176 two bp AT sites, 512 hairpins): 6%; top 50 sequences that contain a GC bp central to a five bp AT-rich site ([1]; share of the top 50 sequences): 14%
Cl.Cl.N=C(N)c1ccc(-c2cc3ccc(C(=N)N)cc3[nH]2)cc1 [DAPI, 4′,6-Diamidine-2-phenylindole.2HCl]	14	100	72	14	5e+07	none	% fluorescence decrease ([1]; non AT-rich hairpins (>150-512), 2 μM): < 20%; binding to GC-rich regions by intercalation relative to AT-rich minor groove binding (GC-rich regions): 100-1000 fold
CC(=O)NCC(=O)O.CC(=O)NCC(=O)O.N=C(N)c1ccc(N=NNc2ccc(C(=N)N)cc2)cc1 [berenil]	15	100	66	15	6.4e+06		
Cn1cc(NC(=O)c2cc(NC(=O)CN=C(N)N)cn2C)cc1C(=O)NCCC(=N)N [netropsin]	9	100	84	9	3.47e+08	no AT-rich sequence interrupted by a central GC bp appears in the top 50 sequences	rank (sequence no.) of ATTTA ([1]; 1.0 μM netropsin): 3; rank (sequence no.) of ATTTA ([1]; 2.0 μM netropsin): 1; ethidium bromide displaced at saturation binding ([2]; hairpin containing 5′-AAAAA): essentially all the ethidium bromide; mean position of the 2 bp AT sites [3]: 67.7; mean position of the 3 bp AT sites [3]: 41.6; mean rank of the ten available 4 bp AT sites [3]: 7.3
CN1CCN(c2ccc3[nH]c(-c4ccc5[nH]c(-c6ccc(O)cc6)nc5c4)nc3c2)CC1 [Hoechst 33258]	19	100	59		7.2e+07	no site containing a GC bp central to a 5 bp AT-rich site is found in the top 50 sequences	GAAT among the top 50 sequences ([1]; 5 sequences): 10%; GATT among the top 50 sequences ([1]; 7 sequences): 14%; top 50 sequences that contain a three bp AT site flanked by a GC bp ([1]; 15 in the top 50): 30%; sequences 21-50 (next 30 after the top 20) that contain a three bp AT site flanked by a GC bp ([1]; 15 of the next 30 sequences): 50%; fluorescent decrease ([1]; hairpins >100-150): < 20%; binding constants by ethidium bromide displacement relative to direct titration ([2]; fold weaker than direct titration, four hairpins): ~2 fold
CN1C(=Cc2cc[n+](C)c3ccccc23)Sc2ccccc21 [thiazole orange]							difference in binding constants between hairpins [4]: 1.3 fold; difference in binding constant between polynucleotides (polynucleotides): no difference

From patent US20030165837A1, “Method for screening DNA binding” (The Scripps Research Institute, priority 2000, published 2003)
